row,melting point [°C],Compound
1,189,O=C(Cc1ccccc1)c1ccc2c3c(ccc([N+](=O)[O-])c13)CC2
2,135 to 136,Cc1ccc(C)n1-c1ccsc1C(=O)NN
3,-49.9,CC1CCCCC1C (stereo not drawn)
4,139,COc1cc(C/C(=N\O)C(=O)O)ccc1O
5,64,CCOC(=O)COc1cc(Cl)c(Cl)cc1Cl
6,178,CC(C)=CCCC(C)=CC=CC(C)=CC=CC(C)=CC=CC=C(C)C=CC=C(C)C=CC1=C(C)CCCC1(C)C
7,62 to 64,O=C(Oc1c(F)c(F)c(F)c(F)c1F)c1ccccc1OC1CCOCC1
8,205 to 210,CC(=O)OC1CCC2(C)C(C1)CC1(OCCO1)C1C2CCC2(C)C1CCC21OCCO1 (stereo not drawn)
9,134 to 136,O=C1NC(=O)C2CC(c3ccccc3)CCC12 (stereo not drawn)
10,90,CC(C(=O)O)N(C)C(=O)OC(C)(C)C (stereo not drawn)
11,53 to 58,COC(=O)Cc1ccc(OCc2ccccc2)cc1
12,279,N=C(N)N1CCc2ccccc2C1
13,-126,CC1=CCCC1
14,93.5 to 98,COCCOc1ccc(CCC(=O)O)cc1N
15,223 to 225,N#CCSc1nc(=O)[nH]c2c1CCCC2
16,83.5,CC(C)OC(=O)C1(S(=O)(=O)c2ccc([N+](=O)[O-])cc2)CCCCCC1
17,100 to 101,COC(=O)c1cc(C=O)cn1C
18,207,COc1cc(C(=O)O)ccc1F
19,268,O=C1NC(=O)C2(CCc3ccccc3C2)N1 (stereo not drawn)
20,96 to 100,CN1CCOc2cc(C(=O)Cl)ccc21
21,52,CC(C)c1ccc(CC(=O)O)cc1
22,220,Nc1ccc(Br)cc1C(=O)O
23,-60,OCCCC1CCCCC1
24,207 to 210,O=C1CCCc2c(O)cccc21

row,melting point [°C],Compound
1,222,CC(=O)OC1CCC2(C)C(CCC3C4CCC(=NNS(=O)(=O)c5ccc(C)cc5)C4(C)CCC32)C1 (stereo not drawn)
2,157,CC1NC(=O)NC1CCCCCC(=O)O (stereo not drawn)
3,74,CCOC(=O)c1c[nH]cc1C
4,150,CC1=C(C(=O)OCc2ccccc2)C(c2ccc3ccccc3c2)NC(=O)N1C (stereo not drawn)
5,58 to 61,Nc1ccccc1OC1CCOCC1
6,31.5,COc1ccccc1OC(C)=O
7,78,O=C1CCC(=O)CC1
8,136 to 144,CCOC(=O)Cc1csc(=S)[nH]1
9,104,COc1ccc(CCC(=O)O)cc1
10,70,C=CCc1ccc(OC)c(OC)c1
11,49 to 51,O=C(Cl)c1ccc2c(c1)CCO2
12,142,O=C(NC(CC=Cc1ccccc1)C(=O)O)OCC1c2ccccc2-c2ccccc21 (stereo not drawn)
13,-30,C=C(C)C(=O)OCCN(C)C
14,195 to 197,COc1cc(C(=O)O)c([N+](=O)[O-])cc1OC
15,140 to 142,CC(C)CCCC(C)C1CCC2C3CC(=O)C4CC(O)CCC4(C)C3CCC12C (stereo not drawn)
16,140,O=[N+]([O-])c1cccc2c1cnn2C1CC(O)C(CO)O1 (stereo not drawn)
17,-52,COc1cccc(OC)c1
18,79 to 83,CC1=NNC(=O)CC1
19,162,C#CC1(OC(C)=O)CCC2C3CCC4=CC(=O)CCC4C3CCC21C (stereo not drawn)
20,234 to 236,O=C(Nc1cc(O)cc(C(=O)O)c1)OCC1c2ccccc2-c2ccccc21
21,84,COc1ccc(COC(C)=O)cc1
22,143,C=C(C(=O)OC1CC(C)=CCCC(CO)=CC2OC(=O)C(=C)C21)C(O)CO (stereo not drawn)
23,163 to 168,OC1(c2ccc(Br)cc2)CCNCC1

# More lines, now with the values behind:
row,Compound,melting point [°C]
1,OCc1ccc(-n2cccc2)cc1,102 to 105
2,O=C1OC(=O)c2cc(F)ccc21,75 to 78
3,N#Cc1c(C(F)(F)F)cc(-c2ccccc2)nc1S,181
4,CC(C)CC1=CC(=Cc2ccc(-c3ccc(Br)cc3)o2)C(=O)O1,107 to 108
5,CC(C)(C)c1nnc(NS(=O)(=O)c2ccccc2)s1,163
6,O=C1Cc2ccccc21,14
7,CCn1c(C)nc2ccccc21,51
8,Cc1ccc(N(C)C(=S)Cl)cc1,56 to 59
9,Cc1cc(C)c([N+](=O)[O-])c(C)c1,44
10,O=[N+]([O-])c1ccc(Cl)cc1Nc1ccccc1,110 to 114
11,OC[C@H]1O[C@@H](Oc2ccccc2)[C@H](O)[C@@H](O)[C@@H]1O,177
12,Cc1noc(-c2ccccc2Br)n1,43 to 44
13,c1ccc2cc(Nc3ccc(Nc4ccc5ccccc5c4)cc3)ccc2c1,235
14,C=C(C)C(=O)OCC1CO1 (stereo not drawn),-82
15,Nc1ccc(-c2cnco2)cc1,150 to 151
16,N#CCc1c(F)cccc1Cl,42
17,CCN(CC)c1ccccc1C,-60
18,CC1(C)C(C=C(Cl)Cl)C1C(=O)OCc1cccc(Oc2ccccc2)c1 (stereo not drawn),34.5
19,COC(=O)c1c(C(F)F)nc(C(F)(F)F)c(C2=NCCS2)c1CC(C)C,78
20,Clc1ccc2c(c1)N=C(N1CCN(C3=Nc4cc(Cl)ccc4Nc4ccccc43)CC1)c1ccccc1N2,333 to 335
21,FC(F)(F)C(F)(F)N(C(F)(F)C(F)(F)F)C(F)(F)C(F)(F)F,-110
22,O=[N+]([O-])c1ccc(C(O)CNCc2ccccc2)cc1 (stereo not drawn),133 to 134

row,Compound,melting point [°C]
1,N#C/C(=C\c1ccc(Cl)cc1Cl)c1nc(-c2cccc3ccccc23)cs1,132
2,Nc1ccc(C(c2ccccc2)(c2ccccc2)c2ccccc2)cc1,258
3,OCCCCC(O)CO (stereo not drawn),25 to 32
4,CC(Oc1ccc(Oc2nc3ccc(Cl)cc3o2)cc1)C(=O)O (stereo not drawn),158
5,CCCCCCCCCCCCCCCCCCOC(C)=O,34.5
6,ON=C(Cc1ccccc1)c1cccc2ccccc12,150
7,C1=CCC(c2ccccc2)(c2ccccc2)C=C1,57
8,CCCCOc1ccc(CO)cc1,29 to 32
9,O=[N+]([O-])c1ccc(O)c2ncccc12,180
10,C(=NCCN=Cc1ccccc1)c1ccccc1,52 to 54
11,Cc1ccc(-c2cc(NN=c3c(C(F)(F)F)nc4ccccc4[nH]c3=O)[nH]n2)cc1,135
12,Brc1ccc(Oc2ccc(Br)c(Br)c2)cc1,48 to 49
13,N#CCCn1c(=O)oc2ccccc21,118 to 120
14,Cc1ccc(C=O)c(Br)c1,35
15,CC(C=Cc1ccc(C=CC(C)=NO)cc1)=NO,280
16,O=[N+]([O-])c1ccccc1C=NO,100
17,N=c1oc2ccccc2cc1-c1nc2ccccc2s1,186
18,O=[N+]([O-])c1ccc2[nH]c(=S)[nH]c2c1,275
19,CCCCCCNC(=S)NCCCCCC,39 to 41
20,CCC(C)Nc1c([N+](=O)[O-])cc(C(C)(C)C)cc1[N+](=O)[O-] (stereo not drawn),60
21,NCCOP(=O)(O)O,242
22,O=[N+]([O-])c1cc(C(O)Cc2ccc3ccccc3n2)ccc1C(O)Cc1ccc2ccccc2n1 (stereo not drawn),172

row,Compound,melting point [°C]
1,CCOCCOC(=O)CCCCCCCCC(=O)OCCOCC,-1
2,CCOC(=O)c1c[nH]c2c(c1=O)CNN2C,138 to 140
3,O=C(O)c1cccc(S(=O)(=O)Nc2ccccc2)c1,236
4,O=C(O)c1ccc(-c2ccncc2)cc1,300
5,c1ccc(-c2cn3c(n2)SCC3)cc1,147 to 148
6,NNCc1ccccc1,26
7,CC(O)CC(=O)O (stereo not drawn),49
8,C=C(C)C(N)=O,110
9,O=C(O)c1cnn2ccccc12,199 to 201
10,Oc1cc(F)ccc1F,38
11,NC(=O)Nc1ccc(Cl)cc1,206
12,N#CCc1cccc(CC#N)c1F,75 to 77
13,CC(C)SC1OC(CO)C(O)C(O)C1O (stereo not drawn),121
14,O=Cc1cccc2c1OCCO2,62 to 63
15,Nc1ccc([N+](=O)[O-])cc1Cl,108
16,O=C(OOC(=O)c1ccc(Cl)cc1Cl)c1ccc(Cl)cc1Cl,106
17,Sc1nc(S)nc(S)n1,300
18,CC(C)C(=O)C(C)C,-69
19,CCNc1cc2oc(=O)cc(C)c2cc1C,168 to 170
20,NNC(=O)c1ccc(C(F)(F)F)cc1,121
21,Nc1ncc2nc[nH]c2n1,280 to 284
22,COc1ccc(Nc2ccc(OC)cc2)cc1,102

row,Compound,melting point [°C]
1,Clc1ccc(-c2c(Cl)cc(Cl)c(Cl)c2Cl)cc1Cl,107
2,BrCCOc1ccc(Br)cc1,56 to 57
3,COc1ccc(C(O)C(O)c2ccccc2)cc1 (stereo not drawn),129
4,Fc1c(Cl)cccc1Cl,38
5,N#Cc1cnn(-c2ccccc2)c1-n1cccc1,81 to 83
6,CNCC(O)c1cccc(O)c1 (stereo not drawn),170
7,S=C=Nc1ccc(Oc2ccccc2)cc1,42
8,O=C(O)C=Cc1ccc2c(c1)OCO2,242 to 244
9,Cc1cc(O)ccc1[N+](=O)[O-],128
10,Cc1ccccc1C=Cc1ccccc1C,83
11,NC(CS(=O)(=O)c1ccc(F)cc1)=NO,180 to 183
12,N=CN,81
13,Cc1ccc(S(=O)(=O)c2ncsc2SCc2ccc(Cl)cc2)cc1,151 to 153
14,O=C(Cl)c1cc(Cl)cc(Cl)c1,40
15,CCCCC=CCCC=CCCCCCCOC(C)=O,25
16,C#CCC(C)(C)C,-75
17,COc1cccc(OC)c1/C=N/n1c(S)nnc1C(F)(F)F,178
18,Cc1nn(C(C)(C)C)c(C)c1C=O,56 to 61
19,Cn1nc(C=O)cc1-c1ccco1,62 to 64
20,NC(=O)C=Cc1ccccc1,149

# From a melting point compilation (Tetko et al.)
